# Active and inactive are the calls of the source.
# Legend:
# [1] = growth inhibition of PfATP4-mutant resistant parasites – NITD609-resistant line, SYBR Green, dry powder, dose response (AID 1159571); assay type: functional, cell-based;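 also: parasites synchronized at ring stage by sorbitol before testing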
# [2] = P. falciparum Dd2 growth inhibitors, dose response, SYBR Green, cherry-picked samples (AID 1159567); assay type: functional, cell-based
# [3] = growth inhibition of yeast DHODH-expressing 3D7 parasites – SYBR Green, dry powder samples, dose response (AID 1159570); assay type: functional, cell-based;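 also: parasite growth measured after 72 hours of compound exposure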
# [4] = toxicity to human HepG2 hepatoma cells – cell-based, plate reader, dry powder samples, cytotoxicity control, dose response (AID 1159569); assay type: functional;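 also: inhibitor potency with signal falling toward the positive control level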
# [5] = Dd2 malaria parasite growth inhibition potency – SYBR Green, dry powder samples, dose response (AID 1159566); assay type: functional, cell-based;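 also: potency for growth inhibition with lower SYBR green DNA signal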
# [6] = biological target: Mitogen-activated protein kinase 10 (Homo sapiens, UniProt P53779); experiment: Dose response biochemical screening assay for inhibitors of c-Jun N-Terminal Kinase 3 (JNK3). [Related pubchem assays: 746 ]
# [7] = blockers of bursicon-stimulated LGR2 cAMP reporter – cell-based, HEK293, CRE-luciferase reporter, cherry pick, set 2, dose response (AID 743343); assay type: functional;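 also: transfected cells were stimulated with diluted bursicon conditioned medium after compound addition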
# [8] = toxicity toward HepG2 liver cells – cell-based, plate reader, cherry-pick, antagonist series, cytotoxicity control, dose response (AID 743416); assay type: functional
# [9] = blockade of melanocortin 4 receptor signaling – cell-based, plate reader, cherry pick, counter-screen for LGR2 antagonist project, dose response (AID 743444); assay type: functional;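 also: transfected HEK 293 cells stimulated with alpha-MSH peptide; potency of inhibitors of the alpha-MSH evoked signal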
# Paired box protein Pax-8 = Paired box protein Pax-8 (Homo sapiens, UniProt Q06710); experiment: PAX8 transcriptional activity inhibition in RMG-I – RMG-I cells, luciferase, cherry-pick, dose response (AID 687027); assay type: functional, cell-based;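 also: luciferase reporter driven by Pax8 target thyroperoxidase promoter measured by SteadyGlo luminescence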
# [10] = A2780 cell killing – plate reader, dry powder samples, cytotoxicity control, dose response (AID 743046); assay type: functional, cell-based
# [11] = OVCAR8 cell viability loss – plate reader, dry powder samples, PAX8 project, dose response (AID 743197); assay type: functional, cell-based; conditions: OVCAR-8
# [12] = OVCAR-3 cell viability loss – plate reader, dry powder samples, PAX8 inhibitor project, dose response (AID 743044); assay type: functional, cell-based
# [13] = biological target: E3 ubiquitin-protein ligase Mdm2 (Homo sapiens, UniProt Q00987); experiment: MDM2-luc reporter signal enhancers, multi-concentration potency testing, MDM2 ubiquitin-protein ligase inhibitor program, whole-cell format, luminescence detection, 384-well microplate (AID 1394); assay type: functional;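 also: MDM2 E3 inhibitors raise luminescence so EC50 is for signal enhancement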
# [14] = viability loss in HeLa cells – cytotoxicity control for MgcRacGAP inhibitor project, dose response (AID 624300); assay type: functional
# [15] = biological target: T1, Rac GTPase-activating protein 1 (Homo sapiens, UniProt Q9H0H5); experiment: blockers of MgcRacGAP-driven Rac1 GTP hydrolysis – biochemical, ADP Hunter fluorescence, primary and confirmatory, confirmation (AID 624330); assay type: functional
# T1 sequence (Q9H0H5 whole entry): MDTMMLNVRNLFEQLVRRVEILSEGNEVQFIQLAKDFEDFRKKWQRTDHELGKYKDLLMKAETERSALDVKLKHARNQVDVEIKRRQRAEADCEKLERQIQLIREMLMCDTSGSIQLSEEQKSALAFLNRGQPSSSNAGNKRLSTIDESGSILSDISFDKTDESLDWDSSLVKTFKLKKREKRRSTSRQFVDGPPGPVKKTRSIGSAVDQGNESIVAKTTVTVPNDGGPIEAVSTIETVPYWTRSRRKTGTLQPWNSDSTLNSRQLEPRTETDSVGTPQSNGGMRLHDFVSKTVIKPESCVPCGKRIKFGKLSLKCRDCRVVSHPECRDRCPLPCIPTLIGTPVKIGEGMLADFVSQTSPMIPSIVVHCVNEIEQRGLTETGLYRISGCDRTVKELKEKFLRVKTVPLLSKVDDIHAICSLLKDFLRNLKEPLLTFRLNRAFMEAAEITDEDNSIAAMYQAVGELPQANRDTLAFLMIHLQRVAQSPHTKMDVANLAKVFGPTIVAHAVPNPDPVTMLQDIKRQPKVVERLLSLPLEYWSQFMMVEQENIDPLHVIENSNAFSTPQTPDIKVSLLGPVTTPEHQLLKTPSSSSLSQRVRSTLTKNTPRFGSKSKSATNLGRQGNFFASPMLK
# [16] = Fluorescence-based cell-based high throughput dose response assay for inhibitors of the interaction of nucleotide-binding oligomerization domain containing 2 (NOD2) and the receptor-interacting serine-threonine kinase 2 (RIPK2).; assay type: functional; conditions: Homo sapiens
# Protein RecA = biological target: T2, Protein RecA (Mycobacterium tuberculosis, UniProt P9WHJ3); experiment: Fluorescence Cell-Free Homogeneous Dose Retest to Identify Inhibitors of RecA-Intein Splicing Activity. [Related pubchem assays (depositor defined):AID2097, AID2223, AID489010, AID492950]; assay type: functional
# T2 sequence (P9WHJ3 whole entry): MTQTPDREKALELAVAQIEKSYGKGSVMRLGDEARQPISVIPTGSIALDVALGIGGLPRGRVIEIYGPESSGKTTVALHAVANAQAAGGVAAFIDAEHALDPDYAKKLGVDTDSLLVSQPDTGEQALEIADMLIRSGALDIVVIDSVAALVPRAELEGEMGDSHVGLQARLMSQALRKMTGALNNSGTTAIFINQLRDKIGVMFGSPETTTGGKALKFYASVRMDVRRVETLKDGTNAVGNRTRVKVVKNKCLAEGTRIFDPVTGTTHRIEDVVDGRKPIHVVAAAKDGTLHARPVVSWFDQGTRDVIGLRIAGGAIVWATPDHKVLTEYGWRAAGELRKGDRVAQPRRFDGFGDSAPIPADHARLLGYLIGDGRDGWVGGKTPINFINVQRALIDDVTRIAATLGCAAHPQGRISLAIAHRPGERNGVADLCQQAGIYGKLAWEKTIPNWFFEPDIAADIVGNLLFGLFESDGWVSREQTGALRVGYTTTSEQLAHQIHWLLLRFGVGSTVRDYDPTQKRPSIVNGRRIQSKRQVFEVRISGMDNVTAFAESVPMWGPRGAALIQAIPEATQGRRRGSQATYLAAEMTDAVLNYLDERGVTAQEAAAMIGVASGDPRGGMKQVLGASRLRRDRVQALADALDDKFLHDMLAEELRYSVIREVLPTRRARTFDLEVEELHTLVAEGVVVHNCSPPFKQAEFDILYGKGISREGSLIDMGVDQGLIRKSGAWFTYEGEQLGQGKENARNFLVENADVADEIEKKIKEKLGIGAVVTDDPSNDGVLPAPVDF
# [17] = biological target: T3, Replicative DNA helicase DnaB (Mycobacterium tuberculosis, UniProt P9WMR3); experiment: DnaB intein splicing inhibitors, dose response, biochemical, cell-free fluorescence (AID 449749); assay type: functional
# T3 sequence (P9WMR3 whole entry): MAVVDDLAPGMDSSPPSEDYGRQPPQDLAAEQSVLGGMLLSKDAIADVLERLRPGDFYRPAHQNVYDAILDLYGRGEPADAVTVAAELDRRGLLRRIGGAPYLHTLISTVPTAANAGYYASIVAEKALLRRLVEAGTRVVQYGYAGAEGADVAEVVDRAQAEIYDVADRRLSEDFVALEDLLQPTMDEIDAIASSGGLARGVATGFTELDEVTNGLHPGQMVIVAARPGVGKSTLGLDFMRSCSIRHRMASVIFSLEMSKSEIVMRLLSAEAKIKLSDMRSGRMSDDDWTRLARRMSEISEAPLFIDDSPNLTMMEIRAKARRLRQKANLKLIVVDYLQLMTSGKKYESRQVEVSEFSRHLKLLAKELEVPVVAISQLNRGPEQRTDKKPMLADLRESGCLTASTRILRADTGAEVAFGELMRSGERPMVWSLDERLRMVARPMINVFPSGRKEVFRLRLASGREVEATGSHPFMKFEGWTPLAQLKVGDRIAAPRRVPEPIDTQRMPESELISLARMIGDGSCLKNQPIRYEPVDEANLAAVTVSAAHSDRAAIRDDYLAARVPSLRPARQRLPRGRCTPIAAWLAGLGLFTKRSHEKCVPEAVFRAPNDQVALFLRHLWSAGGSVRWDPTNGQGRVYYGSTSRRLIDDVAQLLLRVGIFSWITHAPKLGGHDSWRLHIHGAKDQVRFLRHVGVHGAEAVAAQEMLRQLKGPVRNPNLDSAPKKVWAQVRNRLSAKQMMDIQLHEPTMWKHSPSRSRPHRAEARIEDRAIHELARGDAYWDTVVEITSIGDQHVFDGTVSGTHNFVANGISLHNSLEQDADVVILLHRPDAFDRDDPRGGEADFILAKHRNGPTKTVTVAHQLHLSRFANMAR
# [18] = fluconazole-exposed Candida albicans growth modulators – fluorescence, retest, confirmation (AID 2467); assay type: functional, cell-based
# [19] = biological target: T4, Heat shock factor protein 1 (Mus musculus, UniProt P38532); experiment: decrease of HSF1-responsive luciferase luminescence – cell-based, NIH3T3, dose retest, confirmation (AID 2382); assay type: functional;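 also: NIH3T3 fibroblasts with HSF1-driven luciferase reporter stressed by proteasome inhibitor MG132; luminescence from HSF1-driven luciferase expression after 8 hours of MG132 stress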
# T4 sequence (P38532 whole entry): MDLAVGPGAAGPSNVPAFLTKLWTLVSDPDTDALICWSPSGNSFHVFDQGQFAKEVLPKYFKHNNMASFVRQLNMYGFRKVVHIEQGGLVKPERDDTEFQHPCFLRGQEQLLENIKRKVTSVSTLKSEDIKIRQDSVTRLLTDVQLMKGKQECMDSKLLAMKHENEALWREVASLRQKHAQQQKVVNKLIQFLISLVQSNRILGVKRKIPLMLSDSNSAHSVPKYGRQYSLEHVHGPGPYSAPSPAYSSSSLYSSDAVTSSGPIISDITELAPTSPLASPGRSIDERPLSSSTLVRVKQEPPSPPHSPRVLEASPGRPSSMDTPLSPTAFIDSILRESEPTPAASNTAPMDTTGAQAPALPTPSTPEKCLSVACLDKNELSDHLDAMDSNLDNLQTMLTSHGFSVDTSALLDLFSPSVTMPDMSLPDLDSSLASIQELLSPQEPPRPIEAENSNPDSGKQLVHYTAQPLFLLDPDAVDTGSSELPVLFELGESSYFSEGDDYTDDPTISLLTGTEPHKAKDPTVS
# [20] = NIH3T3 cell viability loss – ATP luminescence, mouse fibroblasts, counter-screen, dose response (AID 2010); assay type: functional, cell-based;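 also: cells exposed to compound for about 90 hours before reading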
# [21] = NIH-3T3 fibroblast cytotoxicity, dose response, cytotoxicity control, cell-based, fluorescence, Alamar Blue, secondary assay (AID 2327); assay type: functional;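 also: NIH-3T3 mouse fibroblasts cultured with fluconazole at 8 µg/mL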
# [22] = Trypanosoma cruzi growth suppression in host cells – NIH3T3 host cells, beta-gal luminescence, confirmation (AID 2044); assay type: functional, cell-based;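 also: intracellular parasites grown in NIH/3T3 mouse fibroblasts as host cells; luminescent beta-galactosidase reporter signal from transgenic T. cruzi replicating inside host cells; inhibitors lower the luminescence signal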
# [23] = reduced cellular PGC1a acetyl-lysine signal – cell-based, cherry-picked samples, dose response (AID 720514); assay type: functional;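 also: potency may reflect raised or lowered acetylation signal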
# Mitogen-activated protein kinase 10, sequence (P53779 whole entry): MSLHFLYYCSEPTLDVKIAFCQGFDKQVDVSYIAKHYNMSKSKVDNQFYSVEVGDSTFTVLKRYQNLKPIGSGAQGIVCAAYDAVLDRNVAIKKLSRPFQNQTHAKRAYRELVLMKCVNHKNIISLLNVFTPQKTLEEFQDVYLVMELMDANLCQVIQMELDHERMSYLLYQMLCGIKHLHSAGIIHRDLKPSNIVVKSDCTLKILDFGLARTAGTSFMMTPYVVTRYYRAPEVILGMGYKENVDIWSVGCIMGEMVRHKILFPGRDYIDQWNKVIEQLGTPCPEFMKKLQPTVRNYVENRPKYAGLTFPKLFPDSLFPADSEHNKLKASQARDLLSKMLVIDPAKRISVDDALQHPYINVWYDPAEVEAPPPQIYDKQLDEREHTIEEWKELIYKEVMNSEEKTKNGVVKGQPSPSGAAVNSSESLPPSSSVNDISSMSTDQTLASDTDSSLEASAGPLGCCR
# Paired box protein Pax-8, sequence (Q06710 whole entry): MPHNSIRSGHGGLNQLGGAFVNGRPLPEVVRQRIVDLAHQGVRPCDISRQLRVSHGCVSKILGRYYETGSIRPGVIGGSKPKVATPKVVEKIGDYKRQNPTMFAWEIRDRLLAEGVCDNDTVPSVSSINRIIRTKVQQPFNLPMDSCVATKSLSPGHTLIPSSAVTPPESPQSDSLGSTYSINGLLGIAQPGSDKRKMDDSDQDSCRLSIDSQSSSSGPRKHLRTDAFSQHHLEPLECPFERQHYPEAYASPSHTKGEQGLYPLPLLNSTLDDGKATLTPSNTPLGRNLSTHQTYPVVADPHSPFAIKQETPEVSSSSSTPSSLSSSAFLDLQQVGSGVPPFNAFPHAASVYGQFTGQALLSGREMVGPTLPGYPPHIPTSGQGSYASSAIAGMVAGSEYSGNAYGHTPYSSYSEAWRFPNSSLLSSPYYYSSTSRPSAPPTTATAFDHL
# E3 ubiquitin-protein ligase Mdm2, sequence (Q00987 whole entry): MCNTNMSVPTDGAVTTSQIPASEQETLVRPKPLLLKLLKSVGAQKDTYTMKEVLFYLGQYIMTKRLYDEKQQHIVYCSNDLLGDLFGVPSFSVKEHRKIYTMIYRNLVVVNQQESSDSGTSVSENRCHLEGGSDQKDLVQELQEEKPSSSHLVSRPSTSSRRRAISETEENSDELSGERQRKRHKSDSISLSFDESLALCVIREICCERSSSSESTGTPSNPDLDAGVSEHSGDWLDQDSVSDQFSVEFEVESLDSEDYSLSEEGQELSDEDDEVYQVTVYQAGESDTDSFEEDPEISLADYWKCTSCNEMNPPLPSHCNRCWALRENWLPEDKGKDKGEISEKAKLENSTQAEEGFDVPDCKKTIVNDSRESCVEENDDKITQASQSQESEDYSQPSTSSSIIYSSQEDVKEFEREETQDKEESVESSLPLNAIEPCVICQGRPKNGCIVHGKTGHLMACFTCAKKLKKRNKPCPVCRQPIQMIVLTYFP
compound,measurement,setting,value
COc1ccc2c3c(n(C)c2c1)[C@H](CO)N(C(=O)Nc1ccc(F)cc1)CC31CCN(Cc2cccnc2)CC1,AC50,[1],2.03 µM (active)
same,AC50,[2],3.02 µM (active)
same,AC50,[3],1.52 µM (active)
same,AC50,[4],> 100 µM (inactive)
same,AC50,[5],1.61 µM (active)
C/C(=N\CCCn1ccnc1)C1=C(O)c2ccccc2C1=O,IC50,[6],35.7 µM (not active)
CN(C)C(=O)c1ccc(-c2ccc([C@@H]3[C@@H]4CN(Cc5ccc6c(c5)OCO6)C[C@H]3N4)cc2)cc1,AC50,[1],2.58 µM (active)
same,AC50,[2],1.13 µM (active)
same,AC50,[3],4.61 µM (active)
same,AC50,[4],22.6 µM (active)
same,AC50,[5],2.25 µM (active)
Cc1ccc(-c2csc(Nc3ccccn3)n2)cc1,AC50,[7],2.74 µM (active)
same,AC50,[8],> 52 µM (inactive)
same,AC50,[9],3.3 µM (active)
C[C@H]1CCCCO[C@@H](CN(C)Cc2ccc(Cl)c(Cl)c2)[C@@H](C)CN([C@@H](C)CO)C(=O)c2cc(NC(=O)Nc3ccc(C(F)(F)F)cc3)ccc2O1,AC50,Paired box protein Pax-8,4.77 µM (active)
same,AC50,[10],59.1 µM (active)
same,AC50,[11],> 70 µM (inactive)
same,AC50,[12],22.2 µM (active)
C[C@@H]1CN([C@H](C)CO)C(=O)c2cc(NC(=O)CCCCCC(=O)Nc3ccccc3N)ccc2O[C@@H](C)CCCCO[C@H]1CN(C)Cc1ccc(Cl)c(Cl)c1,AC50,Paired box protein Pax-8,12.2 µM (active)
same,AC50,[11],65.4 µM (active)
COc1ccc(S(=O)(=O)Nc2ccc3c(c2)C(=O)N([C@@H](C)CO)C[C@H](C)[C@@H](CN(C)Cc2ccc(C(F)(F)F)cc2)OCCCC[C@@H](C)O3)cc1,AC50,Paired box protein Pax-8,9.62 µM (active)
same,AC50,[10],56.2 µM (active)
same,AC50,[11],23.6 µM (active)
same,AC50,[12],23 µM (active)
Cc1ccc(C(=O)NN2C(=O)/C(=C/c3cccn3C)SC2=S)cc1,EC50,[13],0.09 µM (not active)
Cc1ccc(-c2ccc([C@H]3[C@@H](CO)N4CCCCN(C(=O)Nc5cccc(F)c5)C[C@H]34)cc2)cc1,AC50,Paired box protein Pax-8,21.7 µM (active)
same,AC50,[10],39.1 µM (active)
same,AC50,[12],37.5 µM (active)
CC(=O)N1CCN(c2ccc(Nc3ncnc4c3oc3ccccc34)cc2)CC1,CC50,[14],58.3 µM (active)
same,IC50,[15],46 µM (active)
Cc1ccc(-n2ncc(Br)c(Br)c2=O)cc1,IC50,[16],3.25 µM (active)
same,EC50,Protein RecA,4.75 µM (active)
same,AC50,[17],20.9 µM (active)
same,EC50,[18],0.443 µM (active)
same,EC50,[19],5.57 µM (active)
same,EC50,[20],1.97 µM (active)
same,EC50,[21],2.27 µM (inconclusive)
same,EC50,[22],2.23 µM (active)
CCOc1ccc(C2CC(=O)NC3=C2C(=O)CCC3)cc1 (configuration not stated),IC50,[6],> 93.1 µM (not active)
CCCN1Cc2cccc(C(=O)NCc3ccc4c(c3)OCO4)c2C1=O,IC50,[6],31.8 µM (not active)
C[C@@H]1CCCCO[C@@H](CN(C)C(=O)c2ccccc2)[C@H](C)CN([C@H](C)CO)C(=O)c2cc(NC(=O)Nc3ccc(C(F)(F)F)cc3)ccc2O1,AC50,Paired box protein Pax-8,3.53 µM (active)
same,AC50,[11],> 70 µM (inactive)
same,AC50,[12],36.5 µM (active)
O=C(c1ccc(F)cc1)N(C(=O)c1ccc(F)cc1)c1ncccn1,AC50,[23],25.9 µM (active)
CCCc1cc(S)n2c(nc3ccccc32)c1C#N,CC50,[14],100 µM (active)
same,IC50,[15],52.2 µM (active)
CC(C)=C1SC(N2CCN(c3cccc(C(F)(F)F)c3)CC2)=NC1=O,EC50,[13],18.7 µM (not active)
